Results as given in article PMC3064100 (Diabetes, 2011).

Experiments:
Assay type in all cases: in vivo, human
Conditions in all cases: i.v. infusion over 360 min, type 2 diabetic patients
[1] = system: patients with type 2 diabetes; experiment: Capillary plasma glucose during 360-min intravenous infusion
[2] = system: patients with type 2 diabetes; experiment: Insulin secretion rates by deconvolution of C-peptide
[3] = system: patients with type 2 diabetes; experiment: Plasma glucagon during 360-min intravenous infusion
[4] = system: patients with type 2 diabetes; experiment: Plasma free

SMILES: CC[C@H](C)[C@H](NC(=O)[C@H](CO)NC(=O)[C@H](Cc1ccc(O)cc1)NC(=O)[C@H](CC(=O)O)NC(=O)[C@H](CO)NC(=O)[C@@H](NC(=O)[C@H](Cc1ccccc1)NC(=O)[C@@H](NC(=O)CNC(=O)[C@H](CCC(=O)O)NC(=O)[C@H](C)NC(=O)[C@@H](N)Cc1ccc(O)cc1)[C@@H](C)O)[C@@H](C)CC)C(=O)N[C@@H](C)C(=O)N[C@@H](CCSC)C(=O)N[C@@H](CC(=O)O)C(=O)N[C@@H](CCCCN)C(=O)N[C@H](C(=O)N[C@@H](Cc1c[nH]cn1)C(=O)N[C@@H](CCC(N)=O)C(=O)N[C@@H](CCC(N)=O)C(=O)N[C@@H](CC(=O)O)C(=O)N[C@@H](Cc1ccccc1)C(=O)N[C@H](C(=O)N[C@@H](CC(N)=O)C(=O)N[C@@H](Cc1c[nH]c2ccccc12)C(=O)N[C@@H](CC(C)C)C(=O)N[C@@H](CC(C)C)C(=O)N[C@@H](C)C(=O)N[C@@H](CCC(N)=O)C(=O)N[C@@H](CCCCN)C(=O)NCC(=O)N[C@@H](CCCCN)C(=O)N[C@@H](CCCCN)C(=O)N[C@@H](CC(N)=O)C(=O)N[C@@H](CC(=O)O)C(=O)N[C@@H](Cc1c[nH]c2ccccc12)C(=O)N[C@@H](CCCCN)C(=O)N[C@@H](Cc1c[nH]cn1)C(=O)N[C@@H](CC(N)=O)C(=O)N[C@H](C(=O)N[C@H](C(=O)N[C@@H](CCC(N)=O)C(=O)O)[C@@H](C)O)[C@@H](C)CC)C(C)C)[C@@H](C)CC [GIP, glucose-dependent insulinotropic polypeptide]
- Effect on glucose concentrations [1]: slight reduction
- Effect on insulin secretion (words; insulin, C-peptide, insulin secretory rates) [2]: hardly did so
- Effect on glucagon concentrations [3]: tended to increase slightly
- Effect on plasma concentrations of free fatty acids [4]: did not alter
